Measurements: patent publication US9790174B2, “Kinase inhibitors” (Respivert Limited, priority 2013, dated 2017)

Columns and labels:
d-U937 cells = assay: Accumulation of β catenin in d-U937 cells; format: cell-based, human; details: relative to Reference Compound at 1 μg/mL
Experimental: U937 cells, a human monocytic cell line, are differentiated into macrophage-type cells by incubation with PMA (100 ng/mL) for between 48 to 72 hr. The cells are then incubated with either final concentrations of test compound or vehicle for 18 hr. The induction of β-catenin by the test compounds is stopped by replacing the media with 4% formaldehyde solution. Endogenous peroxide activity is neutralised by incubating with quenching buffer (100 μL, 0.1% sodium azide, 1% H2O2 in PBS with 0.05% Tween-20) for 20 min. The cells are washed with washing buffer (200 pt; PBS containing 0.05% Tween-20) and incubated with blocking solution (200 pt; 5% milk in PBS) for 1 hr, re-washed with washing buffer (200 pt) and then incubated overnight with anti-β-catenin antibody solution (50 μL) in 1% BSA/PBS (BD, Oxford, UK).
After washing with washing buffer (3×200 pt; PBS containing 0.05% Tween-20), cells are incubated with a HRP-conjugated secondary antibody solution (100 μL) in 1% BSA/PBS (Dako, Cambridge, UK) and the resultant signal is determined colourimetrically (OD: 450 nm with a reference wavelength of 655 nm) using TMB substrate (50 μL; R&D Systems, Abingdon, UK). This reaction is stopped by addition of 1N H2SO4 solution (50 μL). Cells are then washed with washing buffer and 2% crystal violet solution (50 μL) is applied for 30 min. After washing with washing buffer (3×200 μL), 1% SDS (100 μL) is added to each well and the plates are shaken lightly for 1 hr prior to measuring the absorbance at 595 nm (Varioskan® Flash, Thermo-Fisher Scientific).
The measured OD450-655 readings are corrected for cell number by dividing the OD450-655 by the OD595 readings.

TNBS-induced colitis = TNBS-induced colitis in mice; format: in vivo, BDF1 mice; details: conducted over 2 days; oral
Experimental: Non-fasted, 10-12 week old, male BDF1 mice are dosed by oral gavage twice daily with either vehicle (5 mL/kg), reference item (Budesonide 2.5 mg/kg) or test compound (1 or 5 mg/kg) one day before (Day −1) stimulation of the inflammatory response by treatment with 2,4,6-trinitrobenzenesulphonic acid (TNBS) (15 mg/mL in 50% ethanol/50% saline). On Day 0 of the study TNBS (200 μL) is administered intra-colonically via a plastic catheter with BID dosing of the vehicle, reference or test compound continuing for 2 or 4 days. During the study, animals are weighed every day and stool observations are made and recorded as a score, based on stool consistency. At the time of sacrifice on Day 2 (or Day 4), the large intestine is removed and the length and weight recorded. Sections of the colon are taken for histopathology scoring to determine disease severity.

[1] = tested on: intestinal mucosa biopsies from ulcerative colitis patients; assay: Human biopsy assay (cytokine release from intestinal mucosa biopsies); format: cell-based; details: 1 μg/mL, 24 hours
Experimental: Intestinal mucosa biopsies are obtained from the inflamed regions of the colons of IBD patients. The biopsy material is cut into small pieces (2-3 mm) and placed on steel grids in an organ culture chamber at 37° C. in a 5% CO2/95% O2 atmosphere in serum-free media. DMSO control or test compounds at the desired concentration are added to the tissue and incubated for 24 hr in the organ culture chamber. The supernatant is harvested for determination of IL-6, IL-8, IL-1β and TNFα levels by R&D ELISA.

non-mutant kinases = assay: KinomeScan selectivity scores; format: binding; details: evidenced by lower selectivity scores
Experimental: These assays may be conducted by DiscoverX (formerly Ambit; San Diego, Calif.). The percentage inhibition produced by incubation with a test compound may be calculated relative to the non-inhibited control.

[2] = tested on: rat, Cynomolgus macaque or human hepatocytes; assay: Analysis of metabolites in hepatocytes; format: in vitro ADME; details: 10 μM, 0, 60 and 90 minutes
Experimental: Studies were conducted by BioFocus (Saffron Walden, UK) to determine the metabolic fate of the compound of Example 16 following incubation with rat, Cynomolgus macaque or human hepatocytes.
Separate incubations (n=3) of the compound of Example 16 (10 μM initial concentration) or DMSO control, were performed with cryopreserved hepatocytes from each species (0.5 million cell/mL) at 37° C. for 0, 60 and 90 minutes before termination of reactions and compound extraction with acetonitrile. Sample replicates were pooled prior to analysis.
Potential metabolites were identified using time-of-flight (TOF) and triple quadruple (TQ) mass spectrometers.

B-Raf (V600E) = B-Raf (V600E) (Homo sapiens (Human), UniProt P15056, V600E); assay: KINOMEscan binding of kinase to standard ligand
B-Raf (V600E), sequence (P15056 whole entry V600E): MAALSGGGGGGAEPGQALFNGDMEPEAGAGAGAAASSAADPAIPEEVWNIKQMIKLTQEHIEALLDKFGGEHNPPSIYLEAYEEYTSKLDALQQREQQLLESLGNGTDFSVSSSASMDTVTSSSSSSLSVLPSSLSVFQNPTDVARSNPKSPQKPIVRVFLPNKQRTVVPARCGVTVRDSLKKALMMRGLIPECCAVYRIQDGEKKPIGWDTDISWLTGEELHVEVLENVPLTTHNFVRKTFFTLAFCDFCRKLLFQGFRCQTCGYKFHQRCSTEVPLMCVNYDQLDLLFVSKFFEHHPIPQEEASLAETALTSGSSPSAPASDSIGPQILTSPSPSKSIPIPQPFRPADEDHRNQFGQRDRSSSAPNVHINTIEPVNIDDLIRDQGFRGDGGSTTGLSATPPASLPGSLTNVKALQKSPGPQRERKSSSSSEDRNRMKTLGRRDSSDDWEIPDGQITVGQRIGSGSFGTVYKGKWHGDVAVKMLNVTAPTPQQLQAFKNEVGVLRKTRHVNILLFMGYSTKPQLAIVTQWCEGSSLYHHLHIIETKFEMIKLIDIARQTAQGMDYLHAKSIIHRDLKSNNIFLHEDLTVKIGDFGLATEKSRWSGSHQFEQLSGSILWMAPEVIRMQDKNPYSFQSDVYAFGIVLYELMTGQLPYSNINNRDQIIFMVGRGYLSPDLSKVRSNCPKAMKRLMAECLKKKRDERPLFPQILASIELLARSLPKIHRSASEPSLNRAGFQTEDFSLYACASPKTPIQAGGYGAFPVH
Experimental: (§1) Kinase enzyme binding activities of compounds disclosed herein may be determined using a proprietary assay which measures active site-directed competition binding to an immobilized ligand (Fabian, M. A. et al., Nature Biotechnol., 2005, 23:329-336). These assays may be conducted by DiscoverX (formerly Ambit; San Diego, Calif.). The percentage inhibition produced by incubation with a test compound may be calculated relative to the non-inhibited control.

B-Raf = B-Raf (Homo sapiens (Human), UniProt P15056); assay: KINOMEscan binding of kinase to standard ligand
B-Raf, sequence (P15056 whole entry): as the sequence (P15056 whole entry V600E) above, with E600V counted along it
Experimental: as §1

[3] = tested on: adoptive transfer colitis; assay: Adoptive transfer in mice; format: in vivo, SCID mice; details: for levels of pro-inflammatory cytokines in samples of colon tissue: adoptive transfer model; for % Inhibition: colon weight:length, induction window between naïve and vehicle animals
Experimental: On Study day 0, female Balb/C mice are terminated and spleens obtained for CD45RB^high cell isolation (Using SCID IBD cell Separation protocol). Approximately 4×10^5 cells/mL CD45RB^high cells are then injected intraperitoneally (100 μL/mouse) into female SCID animals. On study day 14, mice are weighed and randomized into treatment groups based on body weight. On Day 14, compounds are administered BID, via oral gavage, in a peanut oil vehicle at the dose levels outlined below in Tables 6a and 6b and a dose volume of 5 mL/kg. Treatment continues until study day 42, at which point the animals are necropsied 4 hours after the morning administration. The colon length and weight are recorded and used as a secondary endpoint in the study as a measurement of colon oedema. The colon is then divided into six cross-sections, four of which are used for histopathology scoring (primary endpoint) and two are homogenised for cytokine analysis. Data shown is the % inhibition of the induction window between nave animals and vehicle animals, where higher inhibition implies closer to the non-diseased, nave, phenotype.

[4] = tested on: Salmonella typhimurium, strains TA98 and TA100; assay: Mutagenicity assessment (bacterial reverse mutation screen); format: cell-based; details: TA98 and TA100, presence or absence of S-9 mix
Experimental: Studies were conducted by Sequani (Ledbury, Herefordshire, UK) to assess compounds of the invention for their ability to induce mutations in two histidine dependent auxotrophic mutants of Salmonella typhimurium, strains TA98 and TA100 in vitro.
The mutation screen was conducted using the plate incorporation method and was performed in both the presence and absence of S-9 mix (a liver post-mitochondrial fraction derived from the livers of Aroclor 1254 treated rats). The bacteria were exposed to test compounds dissolved in dimethylsulphoxide, which solvent was also used as the negative control. The dose levels used were 0.32, 1.6, 8, 40, 200, 1000 or 5000 μg/plate.

[5] = tested on: endotoxin-induced uveitis; assay: Endotoxin-induced uveitis in rats; format: in vivo, Lewis rats; details: rats treated with intravitreal endotoxin LPS
Experimental: Male, Lewis rats (6-8 weeks old, Charles River UK Limited) are housed in cages of 3 at 19-21° C. with a 12 h light/dark cycle (07:00/19:00) and fed a standard diet of rodent chow and water ad libitum. Non-fasted rats are weighed, individually identified on the tail with a permanent marker, and receive a single intravitreal administration into the right vitreous humor (5 μL dose volume) of 100 ng/animal of LPS (Escherichia coli 0111:B4 prepared in PBS, Sigma Aldrich, UK) using a 32-gauge needle. Untreated rats are injected with PBS. […] Following euthanasia, the right eye of each animal is enucleated and dissected into front (anterior) and back (posterior) sections around the lens. Each section is weighed and homogenised in 500 μL of sterile phosphate buffered saline followed by 20 minutes centrifugation at 12000 rpm at 4° C.

CYP2C9 = CYP2C9 (Homo sapiens (Human), UniProt P11712); assay: CYP2C9 inhibition studies; format: in vitro ADME
CYP2C9, sequence (P11712 whole entry): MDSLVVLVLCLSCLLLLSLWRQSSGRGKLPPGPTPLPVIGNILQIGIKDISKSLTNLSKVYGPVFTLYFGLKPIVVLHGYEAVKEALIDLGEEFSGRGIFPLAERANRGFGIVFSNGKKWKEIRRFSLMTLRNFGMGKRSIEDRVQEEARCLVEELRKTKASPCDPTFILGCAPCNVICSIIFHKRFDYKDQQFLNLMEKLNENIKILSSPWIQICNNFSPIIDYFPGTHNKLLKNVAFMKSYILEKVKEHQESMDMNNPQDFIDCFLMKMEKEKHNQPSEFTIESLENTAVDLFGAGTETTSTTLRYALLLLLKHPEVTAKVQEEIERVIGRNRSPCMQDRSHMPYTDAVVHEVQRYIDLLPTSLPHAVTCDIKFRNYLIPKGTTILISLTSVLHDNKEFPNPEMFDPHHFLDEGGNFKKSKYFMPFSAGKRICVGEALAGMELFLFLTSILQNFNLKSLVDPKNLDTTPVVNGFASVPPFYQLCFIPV
Experimental: Assessment of certain in vitro ADME (absorption, distribution, metabolism, and excretion) parameters for certain compounds of the invention was conducted by BioFocus (Saffron Walden, UK).

Compound	% β-catenin induction (d-U937 cells; test compound 5 μg/mL) [%]	activity in TNBS model of colonic inflammation (histopathology analysis) (TNBS-induced colitis)	cytokine (IL-1β, IL-6 and IL-8) release compared to the DMSO control [1]	effect on the binding of B-Raf (V600E) to its standard ligand (B-Raf (V600E))	effect on the binding of B-Raf to its standard ligand (B-Raf)	levels of pro-inflammatory cytokines in samples of colon tissue [3]	increases in revertant colonies [4]	other results
COCCOCCOCCOc1cc(Nc2nccc(Oc3ccc(NC(=O)Nc4cc(C(C)(C)C)cc(NS(=O)(=O)N5CCOCC5)c4OC)c4ccccc34)n2)cc(OC)c1 [83(b), N-(5-(tert-butyl)-2-methoxy-3-(3-(4-((2-((3-methoxy-5-(2-(2-(2-methoxyethoxy)ethoxy)-ethoxy)phenyl)amino)pyrimidin-4-yl)oxy)naphthalen-1-yl)ureido)phenyl)morpholine-4-sulfonamide]								% β-catenin induction (d-U937 cells; test compound 10 μg/mL): −6%
C#Cc1cc(Nc2cc(Oc3ccc(NC(=O)Nc4cc(C(C)(C)C)cc(NS(C)(=O)=O)c4OC)c4ccccc34)ccn2)cc(C(=O)N[C@H](C)COCCOCCOC)c1 [Example 68, (R)-3-((4-((4-(3-(5-(tert-Butyl)-2-methoxy-3-(methylsulfonamido)phenyl)ureido)-naphthalen-1-yl)oxy)pyridin-2-yl)amino)-5-ethynyl-N-(1-(2-(2-methoxyethoxy)ethoxy)-propan-2-yl)benzamide]	2							
C#Cc1cc(Nc2nccc(Oc3ccc(NC(=O)Nc4cc(C(C)(C)C)cc(NS(C)(=O)=O)c4OC)c4ccccc34)n2)cc(C(=O)NCCOCCOCCOC)c1 [Example 16, 3-((4-((4-(3-(5-(tert-Butyl)-2-methoxy-3-(methylsulfonamido)phenyl)ureido)naphthalen-1-yl)oxy)pyrimidin-2-yl)amino)-5-ethynyl-N-(2-(2-(2-methoxyethoxy)ethoxy)ethyl)benzamide]		displayed substantial activity	significantly inhibited	did not have any significant effect	did not have any significant effect	significantly reduced levels of pro-inflammatory cytokines	no dose-related or statistically significant increases in revertant colonies	selectivity compared to the Reference Compound (non-mutant kinases): substantially improved selectivities; metabolism at the naphthalene moiety [2]: no products were noted that could be connected to metabolism at the naphthalene moiety; number of metabolites resulting from oxidation on the polyethylene glycol chain of the amide moiety [2]: 8; activity in T cell driven model of colonic inflammation (ratios of colon weight to length) ([3]; adoptive transfer): displayed significant activity
COCCOCCOCCOc1cc(Nc2nccc(Oc3ccc(NC(=O)Nc4cc(C(C)(C)C)cc(NS(C)(=O)=O)c4OC)c4ccccc34)n2)cc(OC)c1 [Example 4, N-(5-(tert-Butyl)-2-methoxy-3-(3-(4-((2-((3-methoxy-5-(2-(2-(2-methoxyethoxy)ethoxy)-ethoxy)phenyl)amino)pyrimidin-4-yl)oxy)naphthalen-1-yl)ureido)phenyl)methanesulfonamide]		displayed substantial activity	significantly inhibited	did not have any significant effect	did not have any significant effect	significantly reduced levels of pro-inflammatory cytokines	no dose-related or statistically significant increases in revertant colonies	cytokine levels in anterior and posterior segments of the eyes [5]: significantly reduced cytokine levels; % Inhibition ([3]; 0.3 mg/kg BID oral gavage): 62%; % Inhibition ([3]; 1 mg/kg BID oral gavage): 110%
C#CC(C)(C)c1cc(NC(=O)Nc2ccc(Oc3ccnc(Nc4cc(C)c5[nH]ncc5c4)n3)c3ccccc23)n(-c2ccc(C)cc2)n1 [Ref Cpd A]								% Inh (inhibition at 5 μM reported instead) (CYP2C9; CYP2C9, 0 min preincubation): 31^[†] %; % Inh (inhibition at 5 μM reported instead) (CYP2C9; CYP2C9, 30 min preincubation): 66^[†] %
C#Cc1cc(Nc2cc(Oc3ccc(NC(=O)Nc4cc(C(C)(C)C)cc(NS(C)(=O)=O)c4OC)c4ccccc34)ccn2)cc(C(=O)NCCOCCOCCOC)c1 [Example 54, 3-((4-((4-(3-(5-(tert-Butyl)-2-methoxy-3-(methylsulfonamido)phenyl)ureido)naphthalen-1-yl)oxy)pyridin-2-yl)amino)-5-ethynyl-N-(2-(2-(2-methoxyethoxy)ethoxy)ethyl)benzamide]	5							
